Tests used:
[1] = NOAEL (No Observed Adverse Effect Level), Til et al. 1997
Description: Food and Drug Administration GRAS Notice No. 889 Spermidine-Rich Wheat Germ Extract, the entirety of which is incorporated herein by reference. […] Til et al., Food and Chemical Toxicology 1997, v. 35, p. 337-348.

[2] = Til et al., Food and Chemical Toxicology 1997; cited from earlier work
[3] = animal models; 10 minutes after; cited from earlier work

| SMILES | NOAEL expressed for a 70 kg person [1] [mg/day] | NOAEL (No Observed Adverse Effect Level) [2] [mg/kg body weight/day] | fraction of amount that reached the lumen found in the portal vein [3] |
| --- | --- | --- | --- |
| NCCCCNCCCN [spermidine] | ~470 | 83 | Approximately 70% |
| NCCCNCCCCNCCCN [spermine] | ~106 | 1.52 | Approximately 70% |
